Like-named read-outs stand apart in the source and are kept apart here.
Legend:
Assay type in all cases: cell-based
panel of 168 GPCRs [1] = target: panel of 168 GPCRs (Homo sapiens, UniProt P25025); details: GPCR CXCR2; agonist, 10 μM
panel of 168 GPCRs [2] = target: panel of 168 GPCRs (Homo sapiens, UniProt P43119); details: GPCR PTGIR; agonist, 10 μM
panel of 168 GPCRs [3] = target: panel of 168 GPCRs (Homo sapiens, UniProt P0DMS8); details: GPCR ADORA3; agonist, 10 μM
panel of 168 GPCRs [4] = target: panel of 168 GPCRs (Homo sapiens, UniProt Q99500); details: GPCR EDG3; agonist, 10 μM
panel of 168 GPCRs [5] = target: panel of 168 GPCRs (Homo sapiens, UniProt P08173); details: GPCR CHRM4; agonist, 10 μM
panel of 168 GPCRs [6] = target: panel of 168 GPCRs (Homo sapiens, UniProt P28223); details: GPCR HTR2A; agonist, 10 μM
panel of 168 GPCRs [7] = target: panel of 168 GPCRs (Homo sapiens, UniProt P51685); details: GPCR CCR8; agonist, 10 μM
panel of 168 GPCRs [8] = target: panel of 168 GPCRs (Homo sapiens, UniProt P32238); details: GPCR CCKAR; agonist, 10 μM
panel of 168 GPCRs [9] = target: panel of 168 GPCRs (Homo sapiens, UniProt P08912); details: GPCR CHRM5; agonist, 10 μM
panel of 168 GPCRs [10] = target: panel of 168 GPCRs (Homo sapiens, UniProt P30874); details: GPCR SSTR2; agonist, 10 μM
panel of 168 GPCRs [11] = target: panel of 168 GPCRs (Homo sapiens, UniProt O95977); details: GPCR EDG6; agonist, 10 μM
panel of 168 GPCRs [12] = target: panel of 168 GPCRs (Homo sapiens, UniProt P51681); details: GPCR CCR5; agonist, 10 μM
panel of 168 GPCRs [13] = target: panel of 168 GPCRs (Homo sapiens, UniProt P49682); details: GPCR CXCR3; agonist, 10 μM
panel of 168 GPCRs [14] = target: panel of 168 GPCRs (Homo sapiens, UniProt Q16581); details: GPCR C3AR1; agonist, 10 μM
panel of 168 GPCRs [15] = target: panel of 168 GPCRs (Homo sapiens, UniProt P21462); details: GPCR FPR1; agonist, 10 μM
panel of 168 GPCRs [16] = target: panel of 168 GPCRs (Homo sapiens, UniProt P18089); details: GPCR ADRA2B; agonist, 10 μM
panel of 168 GPCRs [17] = target: panel of 168 GPCRs (Homo sapiens, UniProt P35367); details: GPCR HRH1; agonist, 10 μM
panel of 168 GPCRs [18] = target: panel of 168 GPCRs (Homo sapiens, UniProt Q99788); details: GPCR CMKLR1; agonist, 10 μM
panel of 168 GPCRs [19] = target: panel of 168 GPCRs (Homo sapiens, UniProt P47898); details: GPCR HTR5A; agonist, 10 μM
panel of 168 GPCRs [20] = target: panel of 168 GPCRs (Homo sapiens, UniProt Q9NSD7); details: GPCR RXFP3; agonist, 10 μM
panel of 168 GPCRs [21] = target: panel of 168 GPCRs (Homo sapiens, UniProt P47211); details: GPCR GALR1; agonist, 10 μM
panel of 168 GPCRs [22] = target: panel of 168 GPCRs (Homo sapiens, UniProt Q96P65); details: GPCR GPR103; agonist, 10 μM
panel of 168 GPCRs [23] = target: panel of 168 GPCRs (Homo sapiens, UniProt Q5NUL3); details: GPCR GPR120; agonist, 10 μM
panel of 168 GPCRs [24] = target: panel of 168 GPCRs (Homo sapiens, UniProt Q15077); details: GPCR P2RY6; agonist, 10 μM
panel of 168 GPCRs [25] = target: panel of 168 GPCRs (Homo sapiens, UniProt P30988); details: agonist, 10 μM
Sequence of panel of 168 GPCRs (Homo sapiens, UniProt P30988) (P30988 25-474 limits assumed): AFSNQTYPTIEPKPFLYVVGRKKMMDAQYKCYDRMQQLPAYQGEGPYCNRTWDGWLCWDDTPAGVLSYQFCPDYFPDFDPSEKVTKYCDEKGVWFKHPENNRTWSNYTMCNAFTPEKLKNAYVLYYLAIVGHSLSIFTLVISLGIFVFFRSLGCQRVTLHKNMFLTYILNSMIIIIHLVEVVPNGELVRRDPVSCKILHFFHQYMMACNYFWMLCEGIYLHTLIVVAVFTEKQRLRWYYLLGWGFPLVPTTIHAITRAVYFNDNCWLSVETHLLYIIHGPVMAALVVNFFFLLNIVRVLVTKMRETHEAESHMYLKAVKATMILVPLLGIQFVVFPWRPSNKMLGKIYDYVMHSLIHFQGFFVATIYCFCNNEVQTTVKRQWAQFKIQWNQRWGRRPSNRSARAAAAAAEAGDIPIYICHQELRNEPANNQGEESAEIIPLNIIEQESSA

panel of 168 GPCRs [26] = target: panel of 168 GPCRs (Homo sapiens, UniProt P28335); details: GPCR HTR2C; agonist, 10 μM
Sequence of panel of 168 GPCRs (Homo sapiens, UniProt P28335) (P28335 33-458 limits assumed): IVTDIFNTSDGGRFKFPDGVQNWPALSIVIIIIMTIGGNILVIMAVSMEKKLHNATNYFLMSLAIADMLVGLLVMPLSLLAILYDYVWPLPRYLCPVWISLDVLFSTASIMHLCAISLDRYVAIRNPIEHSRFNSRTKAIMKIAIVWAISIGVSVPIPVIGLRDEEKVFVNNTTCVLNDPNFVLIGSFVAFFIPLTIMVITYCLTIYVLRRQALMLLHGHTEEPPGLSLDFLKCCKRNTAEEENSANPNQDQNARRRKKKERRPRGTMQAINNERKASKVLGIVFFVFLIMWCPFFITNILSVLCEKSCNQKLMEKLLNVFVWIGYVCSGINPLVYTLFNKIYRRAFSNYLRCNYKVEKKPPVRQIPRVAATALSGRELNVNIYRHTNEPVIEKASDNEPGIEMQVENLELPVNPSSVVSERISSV

panel of 168 GPCRs [27] = target: panel of 168 GPCRs (Homo sapiens, UniProt O43614); details: GPCR HCRTR2; agonist, 10 μM
panel of 168 GPCRs [28] = target: panel of 168 GPCRs (Homo sapiens, UniProt O00574); details: GPCR CXCR6; agonist, 10 μM
panel of 168 GPCRs [29] = target: panel of 168 GPCRs (Homo sapiens, UniProt Q13324); details: GPCR CRHR2; agonist, 10 μM
panel of 168 GPCRs [30] = target: panel of 168 GPCRs (Homo sapiens, UniProt P32239); details: GPCR CCKBR; agonist, 10 μM
panel of 168 GPCRs [31] = target: panel of 168 GPCRs (Homo sapiens, UniProt Q9UBY5); details: GPCR EDG7; agonist, 10 μM

COc1ccc(OCCN2CCN(C(=O)c3cc4ccccc4[nH]3)CC2)cc1 [Compound 1, (1H-indol-2-yl)(4-(2-(4-methoxyphenoxy)ethyl)piperazin-1-yl)methanone]
β-Arrestin Recruitment activity (panel of 168 GPCRs [1]): 6% | β-Arrestin Recruitment activity (panel of 168 GPCRs [2]): 4% | β-Arrestin Recruitment activity (panel of 168 GPCRs [3]): 8% | β-Arrestin Recruitment activity (panel of 168 GPCRs [4]): 4% | β-Arrestin Recruitment activity (panel of 168 GPCRs [5]): 3% | β-Arrestin Recruitment activity (panel of 168 GPCRs [6]): 4% | β-Arrestin Recruitment activity (panel of 168 GPCRs [7]): 0% | β-Arrestin Recruitment activity (panel of 168 GPCRs [8]): 0% | β-Arrestin Recruitment activity (panel of 168 GPCRs [9]): 3% | β-Arrestin Recruitment activity (panel of 168 GPCRs [10]): 0% | β-Arrestin Recruitment activity (panel of 168 GPCRs [11]): 17% | β-Arrestin Recruitment activity (panel of 168 GPCRs [12]): 0% | β-Arrestin Recruitment activity (panel of 168 GPCRs [13]): 5% | β-Arrestin Recruitment activity (panel of 168 GPCRs [14]): 0% | β-Arrestin Recruitment activity (panel of 168 GPCRs [15]): 5% | β-Arrestin Recruitment activity (panel of 168 GPCRs [16]): −4% | β-Arrestin Recruitment activity (panel of 168 GPCRs [17]): 0% | β-Arrestin Recruitment activity (panel of 168 GPCRs [18]): 0% | β-Arrestin Recruitment activity (panel of 168 GPCRs [19]): 3% | β-Arrestin Recruitment activity (panel of 168 GPCRs [20]): 5% | β-Arrestin Recruitment activity (panel of 168 GPCRs [21]): 4% | β-Arrestin Recruitment activity (panel of 168 GPCRs [22]): −9% | β-Arrestin Recruitment activity (panel of 168 GPCRs [23]): 12% | β-Arrestin Recruitment activity (panel of 168 GPCRs [24]): 6% | β-Arrestin Recruitment activity (panel of 168 GPCRs [25]; GPCR CALCR RAMP2): 5% | β-Arrestin Recruitment activity (panel of 168 GPCRs [25]; GPCR CALCR RAMP3): 6% | β-Arrestin Recruitment activity (panel of 168 GPCRs [25]; GPCR CALCR): 0% | β-Arrestin Recruitment activity (panel of 168 GPCRs [26]): 6% | β-Arrestin Recruitment activity (panel of 168 GPCRs [27]): 0% | β-Arrestin Recruitment activity (panel of 168 GPCRs [28]): 8% | β-Arrestin Recruitment activity (panel of 168 GPCRs [29]): 0% | β-Arrestin Recruitment activity (panel of 168 GPCRs [30]): 4% | β-Arrestin Recruitment activity (panel of 168 GPCRs [31]): 6%
